Legend:
depressed patients = test: Comparison of change in CSFQ score (difference from placebo) with bupropion XL and escitalopram, FIG. 1; type: in vivo, Humans; settings: overall and virtually every CSFQ subscale, bupropion XL data from Clayton et al.
Experimental: FIG. 1 depicts the difference in the Changes in Sexual Function Questionaire (CSFQ) scores (difference from placebo) from baseline to week 8 for OPC-14523, buproprion XL and escitalopram. The data for bupropion XL and escitalopram were obtained from Clayton et al., 45th Annual NCDEU Meeting, Session 1-21, Boca Raton, Fla., June 6-9, 2005. For the Clayton et al. data, N=273 (placebo), 276 (bupropion XL, 300-400 mg) and 281 (escitalopram, 10-20 mg).
There is evidence that bupropion reduces the sexual dysfunction in depressed patients, and may be useful as a treatment for sexual dysfunction. Therefore, the data of OPC-14523 effect on sexual dysfunction discussed above were compared to data on the effects of bupropion XL and escitalopram on sexual function reported by Clayton et al. (45th Annual NCDEU Meeting, Boca Raton, Fla. June 6-9, 2005).
The comparison was based on the change in CSFQ score from baseline to week 8. The changes were assessed by subtracting the placebo score from the treated score at baseline and at week 8, then taking the difference of these two numbers.

patients with MDD = test: Efficacy on MDD, main indication of the clinical trial; type: in vivo, Humans; settings: main indication in the clinical trial; 5 mg BID, 8 weeks
Experimental: A double-blind, randomized, placebo-controlled, parallel-group study was performed to evaluate the efficacy, safety and tolerability of OPC-14523 in patients with MDD. The patients selected for participation in the trial had to meet DSM-IV-TR criteria for MDD (296.2x or 296.3x; diagnosis via MINI) and had had symptoms of depression for at least 2 months before the start of the double-blind treatment. Among other drugs prohibited during the study, patients were prohibited from taking drugs used to enhance sexual function, including, but not limited to, sildenafil, tadalafil and vardenafil, or taking psychopharmacologic drugs.

In the case of `COc1cccc2c1CCC(=O)N2CCCN1CCN(c2cccc(Cl)c2)CC1` [OPC-14523, 1-[3-[4-(3-chlorophenyl)-1-piperazinyl]propyl]-5-methoxy-3,4-dihydro-2(1H)-quinolone], the “change in CSFQ score from baseline to week 8 (difference from placebo), compared to bupropion XL” value (depressed patients) is reported as “larger improvement” and the “effect on MDD” value (patients with MDD) is reported as “did not demonstrate a statistically significant effect”.
